System: PD-1/PD-L1 interaction
Experiment: Cell based PD-1/PD-L1 NFAT reporter assay
Parameters: species or system human
Conditions: Homo sapiens, 6 h, PD-1/NFAT-Reporter-Jurkat cells co-cultured with TCR activator/PD-L1-CHO cells; 6 hour incubation; luciferase; calibrated to Atezolizumab 10 nM; read-out: Absolute EC50
Protocol: Cell Based PD-1/PD-L1 NFAT Reporter Assay
Compounds of the present patent were tested in a cell based PD-1/PD-L1 NFAT reporter assay.
The cell-based luciferase reporter assay is used for monitoring the PD-1/PD-L1 inhibitor by characterizing the biological activity of PD-1: PD-L1 interactions in cellular context. PD-1/NFAT-Reporter-Jurkat cells stably over-expressing human PD-1 with NFAT reporter are used as effector cells. TCR activator/PD-L1—CHO cells over-expressing PD-L1 and an engineered T cell receptor (TCR) activator are used as target cells. When these two cells are co-cultivated, TCR complexes on effector cells are activated by TCR activator on target cells, resulting in expression of the NFAT luciferase reporter. However, PD1 and PD-L1 (or PD-L2) ligation prevents TCR activation and suppresses the NFAT-responsive luciferase activity. This inhibition can be specifically reversed by anti-PD1 or anti-PD-L1 inhibitors. PD1/PD-L1 inhibitors block PD1:PD-L1 interaction and promote TCR activation, resulting in reactivation of the NFAT responsive luciferase reporter.
PD-1/NFAT—Reporter—Jurkat cell (Cat: 60535) and TCR activator/PD-L1—CHO cell (Cat: 60536) were purchased from BPS Bioscience. Anti-human PD-L1 antibody (Atezolizumab, Cat: A2004) was purchased from Selleck; luciferase reporter gene expression detection kit (ONE-Glo™ Luciferase Assay System, Cat: E6120) was purchased from Promega; multifunction plate reader (SpectraMax i3x) was purchased from Molecular Devices.
PD-1/NFAT—Reporter—Jurkat cells and TCR activator/PD-L1—CHO cells were cultured in recommended media respectively.
Harvest TCR activator/PD-L1-CHO cells from culture and seed cells at a density of 35,000 cells per well into 96-well microplate in 100 µl of growth medium. Incubate cells at 37° C. in a CO2 incubator overnight. Next day, discard the culture media, add diluted compound in assay medium for 30 min. Anti-PD-L1 antibody (Atezolizumab, final concentration 10 nM) and 0.1% DMSO were the positive and negative control, respectively. Harvest the PD-1/NFAT-reporter-Jurkat cells by centrifugation and add to the wells. After 6 hour incubation, perform luciferase assay using the ONE-Glo™ Luciferase Assay System, following the manufacturer's assay protocol.
Anti-PD-L1 antibody (Atezolizumnab, 10 nM) was used as positive control to calibrate the inhibition rate using the following equation: % inhibition=(Sample luminescence/Average vehicle group luminescence−1)/(Average PD-L1 group luminescence/Average vehicle group luminescence−1)×100%.

SMILES | EC50 [nM]
O=C1CC(COc2cc(OCc3cccc(-c4cccc5c4cnn5CCCCN4CC[C@@H](O)C4)c3Br)c(Cl)cc2CN[C@@H](CO)C(=O)O)CN1 (some centres unmarked) [Compound 48] | 997
O=C(O)[C@H](CO)NCc1cc(Cl)c(OCc2cccc(-c3cccc4c3cnn4CCCCN3CC[C@@H](O)C3)c2Br)cc1OCC(=O)N1CC[C@@H](O)C1 [Compound 49, (4-((2-bromo-3-(1-(4-((R)-3-hydroxypyrrolidin-1-yl)butyl)-1H-indazol-4-yl)benzyl)oxy)-5-chloro-2-(2-((R)-3-hydroxypyrrolidin-1-yl)-2-oxoethoxy)benzyl)-L-serine] | > 10000
CCNC(=O)COc1cc(OCc2cccc(-c3cccc4c3cnn4CCCCN3CC[C@@H](O)C3)c2Br)c(Cl)cc1CN[C@@H](CO)C(=O)O [Compound 50] | 2820
NC(=O)CNC(=O)COc1cc(OCc2cccc(-c3cccc4c3cnn4CCCCN3CC[C@@H](O)C3)c2Br)c(Cl)cc1CN[C@@H](CO)C(=O)O [Compound 51] | 3080
CN(C)CCNC(=O)COc1cc(OCc2cccc(-c3cccc4c3cnn4CCCCN3CC[C@@H](O)C3)c2Br)c(Cl)cc1CN[C@@H](CO)C(=O)O [Compound 52] | > 10000
COCCNC(=O)COc1cc(OCc2cccc(-c3cccc4c3cnn4CCCCN3CC[C@@H](O)C3)c2Br)c(Cl)cc1CN[C@@H](CO)C(=O)O [Compound 53] | > 10000
Cc1c(OCCCN2CC[C@@H](O)C2)cccc1-c1cccc2c1cnn2Cc1cc(OCc2cncc(C#N)c2)c(CN[C@@H](CO)C(=O)O)cc1Cl [Compound 54, (5-chloro-2-((5-cyanopyridin-3-yl)methoxy)-4-((4-(3-(3-((R)-3-hydroxypyrrolidin-1-yl)propoxy)-2-methylphenyl)-1H-indazol-1-yl)methyl)benzyl)-L-serine] | 339
N#Cc1cncc(COc2cc(Cn3ncc4c(-c5cccc(OCCCN6CC[C@@H](O)C6)c5Br)cccc43)c(Cl)cc2CN[C@@H](CO)C(=O)O)c1 [Compound 55, (4-((4-(2-bromo-3-(3-((R)-3-hydroxypyrrolidin-1-yl)propoxy)phenyl)-1H-indazol-1-yl)methyl)-5-chloro-2-((5-cyanopyridin-3-yl)methoxy)benzyl)-L-serine] | 1150
COc1cc(OCc2cccc(-c3cccc4c3cnn4Cc3cc(OCc4cncc(C#N)c4)c(CN[C@@H](CO)C(=O)O)cc3Cl)c2C)c(Cl)cc1CN[C@@H](CO)C(=O)O [Compound 56, (4-((3-(1-(4-((((S)-1-carboxy-2-hydroxyethyl)amino)methyl)-2-chloro-5-((5-cyanopyridin-3-yl)methoxy)benzyl)-1H-indazol-4-yl)-2-methylbenzyl)oxy)-5-chloro-2-methoxybenzyl)-L-serine] | 163
Cc1c(COc2cc(OCc3cncc(C#N)c3)c(CN[C@@H](CO)C(=O)O)cc2Cl)cccc1-c1cccc2c1cnn2Cc1cc(OCc2cncc(C#N)c2)c(CN[C@@H](CO)C(=O)O)cc1Cl [Compound 57, (4-((3-(1-(4-((((S)-1-carboxy-2-hydroxyethyl)amino)methyl)-2-chloro-5-((5-cyanopyridin-3-yl)methoxy)benzyl)-1H-indazol-4-yl)-2-methylbenzyl)oxy)-5-chloro-2-((5-cyanopyridin-3-yl)methoxy)benzyl)-L-serine] | 53
N#Cc1cncc(COc2cc(OCc3cccc(-c4cccc5c4cnn5Cc4ccc(CN[C@@H](CO)C(=O)O)cc4)c3Br)c(Cl)cc2CN[C@@H](CO)C(=O)O)c1 [Compound 58, (4-((4-(2-bromo-3-((4-((((S)-1-carboxy-2-hydroxyethyl)amino)methyl)-2-chloro-5-((5-cyanopyridin-3-yl)methoxy)phenoxy)methyl)phenyl)-1H-indazol-1-yl)methyl)benzyl)-L-serine] | 1710
N#Cc1cncc(COc2cc(OCc3cccc(-c4cccc5c4cnn5Cc4ccc(CN[C@@H](CO)C(=O)O)cc4Cl)c3Br)c(Cl)cc2CN[C@@H](CO)C(=O)O)c1 [Compound 59, (4-((4-(2-bromo-3-((4-((((S)-1-carboxy-2-hydroxyethyl)amino)methyl)-2-chloro-5-((5-cyanopyridin-3-yl)methoxy)phenoxy)methyl)phenyl)-1H-indazol-1-yl)methyl)-3-chlorobenzyl)-L-serine] | 220
CC(CO)(CO)NCc1cc(Cl)c(Cn2ncc3c(-c4cccc5c4cnn5CCCN4CC[C@@H](O)C4)cccc32)cc1OCc1cncc(C#N)c1 [Compound 60, (R)-5-((4-chloro-2-(((1,3-dihydroxy-2-methylpropan-2-yl)amino)methyl)-5-((1′-(3-(3-hydroxypyrrolidin-1-yl)propyl)-1H,1′H-[4,4′-biindazol]-1-yl)methyl)phenoxy)methyl)nicotinonitrile] | 1850
N#Cc1cncc(COc2cc(Cn3ncc4c(-c5cccc6c5cnn6Cc5cc(OCc6cncc(C#N)c6)c(CN[C@@H](CO)C(=O)O)cc5Cl)cccc43)c(Cl)cc2CN[C@@H](CO)C(=O)O)c1 [Compound 61, (2S,2'S)-2,2′-((((1H,1′H-[4,4′-biindazole]-1,1′-diylbis(methylene))bis(5-chloro-2-((5-cyanopyridin-3-yl)methoxy)-4,1-phenylene))bis(methylene))bis(azanediyl))bis(3-hydroxypropanoic acid)] | 124
Cc1c(COc2cc(OCc3cncc(C#N)c3)c(CN[C@@H](CO)C(=O)OC(C)C)cc2Cl)cccc1-c1cccc2c1cnn2Cc1cc(OCc2cncc(C#N)c2)c(CN[C@@H](CO)C(=O)O)cc1Cl [Compound 64, (5-chloro-4-((4-(3-((2-chloro-5-((5-cyanopyridin-3-yl)methoxy)-4-((((S)-3-hydroxy-1-isopropoxy-1-oxopropan-2-yl)amino)methyl)phenoxy)methyl)-2-methylphenyl)-1H-indazol-1-yl)methyl)-2-((5-cyanopyridin-3-yl)methoxy)benzyl)-L-serine] | 550
Cc1c(COc2cc(OCc3cncc(C#N)c3)c(CN[C@@H](CO)C(=O)O)cc2Cl)cccc1-c1cccc2c1cnn2Cc1cc(OCc2cncc(C#N)c2)c(CN[C@@H](CO)C(=O)OC(C)C)cc1Cl [Compound 65, (5-chloro-4-((3-(1-(2-chloro-5-((5-cyanopyridin-3-yl)methoxy)-4-((((S)-3-hydroxy-1-isopropoxy-1-oxopropan-2-yl)amino)methyl)benzyl)-1H-indazol-4-yl)-2-methylbenzyl)oxy)-2-((5-cyanopyridin-3-yl)methoxy)benzyl)-L-serine] | 418
COc1cc(Cn2ncc3c(-c4cccc(COc5cc(OC)c(CN[C@@H](CO)C(=O)O)cc5Cl)c4C)cccc32)c(Cl)cc1CN[C@@H](CO)C(=O)O [Compound 66, (4-((3-(1-(4-((((S)-1-carboxy-2-hydroxyethyl)amino)methyl)-2-chloro-5-methoxybenzyl)-1H-indazol-4-yl)-2-methylbenzyl)oxy)-5-chloro-2-methoxybenzyl)-L-serine] | 307
COc1cc(Cn2ncc3c(-c4cccc(COc5cc(OCc6cncc(C#N)c6)c(CN[C@@H](CO)C(=O)O)cc5Cl)c4C)cccc32)c(Cl)cc1CN[C@@H](CO)C(=O)O [Compound 67, (4-((4-(3-((4-((((S)-1-carboxy-2-hydroxyethyl)amino)methyl)-2-chloro-5-((5-cyanopyridin-3-yl)methoxy)phenoxy)methyl)-2-methylphenyl)-1H-indazol-1-yl)methyl)-5-chloro-2-methoxybenzyl)-L-serine] | 89
COc1cc(OCc2cccc(-c3cccc4c3cnn4Cc3cc(OCc4cncc(C#N)c4)c(CNCCO)cc3Cl)c2C)c(Cl)cc1CNCCO [Compound 68, 5-((4-chloro-5-((4-(3-((2-chloro-4-(((2-hydroxyethyl)amino)methyl)-5-methoxyphenoxy)methyl)-2-methylphenyl)-1H-indazol-1-yl)methyl)-2-(((2-hydroxyethyl)amino)methyl)phenoxy)methyl)nicotinonitrile] | 348
COc1cc(OCc2cccc(-c3cccc4c3cnn4Cc3cc(OCc4cncc(C#N)c4)c(CNC[C@@H]4CCC(=O)N4)cc3Cl)c2C)c(Cl)cc1CNC[C@@H]1CCC(=O)N1 [Compound 69, 5-((4-chloro-5-((4-(3-((2-chloro-5-methoxy-4-(((((S)-5-oxopyrrolidin-2-yl)methyl)amino)methyl)phenoxy)methyl)-2-methylphenyl)-1H-indazol-1-yl)methyl)-2-(((((S)-5-oxopyrrolidin-2-yl)methyl)amino)methyl)phenoxy)methyl)nicotinonitrile] | 157
